Results reported in patent US10314312B2, “Synergistic antimicrobial composition of zinc pyrithione” (Jubilant Life Sciences Limited, priority 2014, dated 2019).

Columns and labels:
[1] = system: Malassezia furfur (ATCC No. 14521); assay: Anti-dandruff efficacy: zone of inhibition by disc diffusion method; assay type: cell-based; design: key: XX denotes No Activity
Procedure: (§1) The anti-dandruff efficacy was determined by measuring zone of inhibition using disc diffusion method against Malassezia furfur (ATCC No. 14521). […] The culture plates were incubated at 37° C. for 48 hrs and antifungal activity was evaluated by observing an area of no growth around the disc. An area of no growth around the swatch is known as a zone of inhibition.

[2] = Anti-leaching (biocide release rate) of paint formulations, ASTM-D-6903-07
Procedure: The biocide (ZPTO) release rate in each test sample is calculated by the following formula: Biocide (ZPTO) release rate=(CZPTO*V*D)/(T*A) wherein, CZPTO=concentration of ZPTO in substitute ocean water (μgL^−1); V=substitute ocean water volume (L); D=hours per day; T=rotation period (hr); A=Area of paint (cm^2).

[3] = combination: ZnP 0.25 w/w % + zinc salt 0.25 w/w %
[4] = zinc salt alone 0.25 w/w %, no ZnP
[5] = zinc salt alone 0.50 w/w %, no ZnP
[6] = zinc salt alone 1.00 w/w %, no ZnP
[7] = zinc salt alone 1.50 w/w %, no ZnP
[8] = zinc salt alone 2.00 w/w %, no ZnP
[9] = combination: ZnP 0.25 w/w % + zinc salt 0.50 w/w %
[10] = combination: ZnP 0.25 w/w % + zinc salt 1.50 w/w %

Procedure for M. furfur: as §1
The SI is calculated based on F. C. […] SI=Qa/QA+Qb/QB Qa=the concentration of compound A in the blend; Qb=the concentration of compound B in the blend; QA=the concentration of compound A as the only biocide; QB=the concentration of compound B as the only biocide.
If SI (the Synergy Index) is greater than one, antagonism between the products is indicated. If the sum is equal to one, additivity is indicated. But when SI is less than one, synergism is shown, i.e. the lower the SI the greater the synergy shown.

Compound | Zone of Inhibition [1, 3] | Zone of Inhibition [1, 4] | Zone of Inhibition [1, 5] | Zone of Inhibition [1, 6] | Zone of Inhibition [1, 7] | Zone of Inhibition [1, 8] | Zone of Inhibition [1, 9] | Zone of Inhibition [1, 10] | Zone of Inhibition ([1]; combination: ZnP 0.50 w/w % + zinc salt 1.50 w/w %) | Zone of Inhibition ([1]; combination: ZnP 1.00 w/w % + zinc salt 0.25 w/w %) | Zone of Inhibition ([1]; combination: ZnP 1.00 w/w % + zinc salt 0.50 w/w %) | QB = the concentration of compound B as the only biocide (minimum inhibitory concentration) (M. furfur; zinc nicotinate alone) | Zone of Inhibition ([1]; ZnP alone 0.25 w/w %) | Zone of Inhibition ([1]; ZnP alone 0.50 w/w %) | Zone of Inhibition ([1]; ZnP alone 1.00 w/w %) | Zone of Inhibition ([1]; ZnP alone 1.50 w/w %) | Zone of Inhibition ([1]; ZnP alone 2.00 w/w %) | QA = the concentration of compound A as the only biocide (minimum inhibitory concentration) (M. furfur; zinc pyrithione alone) | ZPTO Conc (av.) ([2]; ZPTO concentration in artificial marine water (substitute ocean water), paint formulation) | Rate of Biocide Leaching (CZPTO * V*D)/(T*A) ([2]; paint formulation in substitute ocean water)
NCC(=O)[O-].NCC(=O)[O-].[Zn+2] [Zn-Gly] | 30 mm | XX | XX | XX | XX | XX | – | – | – | – | – | – | – | – | – | – | – | – | – | –
CC(O)C(=O)[O-].CC(O)C(=O)[O-].[Zn+2] (centres unmarked) [Zn-Lac] | 38 mm | XX | XX | XX | XX | XX | – | – | – | – | – | – | – | – | – | – | – | – | – | –
O=C([O-])c1ccccn1.O=C([O-])c1ccccn1.[Zn+2] [Zn-Pic] | 35 mm | XX | XX | XX | XX | XX | 38 mm | 38 mm | – | – | – | – | – | – | – | – | – | – | – | –
[O]=[Zn] [ZnO, zinc oxide] | 30 mm | XX | XX | XX | XX | XX | – | 32 mm | – | – | – | – | – | – | – | – | – | – | – | –
Zinc Nicotinate [Zn-Nic] | 40 mm | XX | XX | XX | XX | 6 mm | 40 mm | 38 mm | 48 mm | 32 mm | 48 mm | 35000 (QB) | – | – | – | – | – | – | – | –
Zinc pyrithione [ZPTO] | – | – | – | – | – | – | – | – | – | – | – | – | 30 mm | 30 mm | 30 mm | 30 mm | 30 mm | 8 | 2145.6 μgL−1 | 171.65 μgcm^2d^−1
